Assay results reported in patent publication US20100160176A1, “RAT GENE […] OF DRUG TRANSPORTERS, CYTOCHROME P450s, TRANSFERASES AND NUCLEAR […] FOR PREDICTING DRUG EFFECTS” (NOAB BIOD[…]., priority 2008, published 2010).
Like-named read-outs stand apart in the source and are kept apart here.

Key:
ABCD2 gene expression = assay: Rat DTEx microarray gene expression profiling in drug-treated female rat primary hepatocytes (FIG. 109): ABCD2; type: in vitro ADME
Experimental: (§1) Images were analysed using QuantArray software (GSI Lumonics Inc.).

CYP3A1 gene expression = assay: Rat DTEx microarray gene expression profiling in drug-treated female rat primary hepatocytes (FIG. 109): CYP3A1; settings: female rat primary hepatocytes treated with the drug
Source text: The total RNA component of the nucleic acid lysate was isolated according to the manufacturer's instructions.

ABCC3 gene expression = assay: Rat DTEx microarray gene expression profiling in drug-treated female rat primary hepatocytes (FIG. 109): ABCC3; type: in vitro ADME
Experimental: as §1

[1] = female rat primary hepatocytes treated with the drug, FIG. 109

Row | Structure (SMILES) | effect on ABCD2 gene expression (normalized fluorescence intensity dendrogram plot) (ABCD2 gene expression; [1]) | effect on CYP3A1 gene expression (normalized fluorescence intensity dendrogram plot) (CYP3A1 gene expression) | effect on ABCC3 gene expression (normalized fluorescence intensity dendrogram plot) (ABCC3 gene expression; [1]) | effect on ABCD2 gene expression (normalized fluorescence intensity dendrogram plot) (ABCD2 gene expression) | effect on ABCC3 gene expression (normalized fluorescence intensity dendrogram plot) (ABCC3 gene expression)
1 | CC(=O)[C@H]1[C@H](C#N)C[C@H]2[C@@H]3CC=C4C[C@@H](O)CC[C@]4(C)[C@H]3CC[C@@]21C [PCN] | suppress | induce | suppresses gene expression |  | 
2 | C[C@@H]1C[C@H]2[C@@H]3CCC4=CC(=O)C=C[C@]4(C)[C@@]3(F)[C@@H](O)C[C@]2(C)[C@@]1(O)C(=O)CO [DEX, dexamethasone] |  |  |  | suppress | induces gene expression
